Results as given in patent US20240360178A1, “MACROCYCLIC IMMUNOMODULATORS” (Bristol-Myers Squibb Company, priority 2021, published 2024).
Positions of bridges follow the written chain, without caps; N, C: chain ends. Non-standard residues stand in square brackets, D forms with d. Residues, ends and D or L forms follow the SMILES beside them. ξ: configuration not given here. *: point of attachment. Phe(4-CH2NH2) = NCc1ccc(C[C@H](N)C(=O)O)cc1; Bip = N[C@@H](Cc1ccc(-c2ccccc2)cc1)C(=O)O; Phe(3-OMe) = COc1cccc(C[C@H](N)C(=O)O)c1; NMeY = CN[C@@H](Cc1ccc(O)cc1)C(=O)O; NMeF = CN[C@@H](Cc1ccccc1)C(=O)O; 3Pal = N[C@@H](Cc1cccnc1)C(=O)O; 4Pal = N[C@@H](Cc1ccncc1)C(=O)O; Aad = N[C@@H](CCCC(=O)O)C(=O)O; Cha = N[C@@H](CC1CCCCC1)C(=O)O; Carboxymethyl = O=C(O)C*; NMeA = CN[C@@H](C)C(=O)O; Nle = CCCC[C@H](N)C(=O)O; Orn = NCCC[C@H](N)C(=O)O; Dab = NCC[C@H](N)C(=O)O; dAze = O=C(O)[C@H]1CCN1; Abu = CC[C@H](N)C(=O)O; ξV = CC(C)C(N)C(=O)O; Sar = CNCC(=O)O

biological target: T1, human PD-1 (Jurkat-PD-1 cells) / PE-labeled human PD-L1-Ig (Homo sapiens, UniProt Q15116); assay: Jurkat-PD-1 Cell Binding High-Content Screening Assay (CBA); Jurkat hPD1-PDL1 assay; conditions: Jurkat cell line over-expressing human PD-1; PE-labeled PD-L1-Ig 20 nM final; compound incubated 2 hours at 37° C.; read-out: Jurkat HPD1-PDL1 IC50
T1 construct: expressed in transfected cells; host or cells: Jurkat cell line over-expressing human PD-1
T1 sequence (Q15116 25-288): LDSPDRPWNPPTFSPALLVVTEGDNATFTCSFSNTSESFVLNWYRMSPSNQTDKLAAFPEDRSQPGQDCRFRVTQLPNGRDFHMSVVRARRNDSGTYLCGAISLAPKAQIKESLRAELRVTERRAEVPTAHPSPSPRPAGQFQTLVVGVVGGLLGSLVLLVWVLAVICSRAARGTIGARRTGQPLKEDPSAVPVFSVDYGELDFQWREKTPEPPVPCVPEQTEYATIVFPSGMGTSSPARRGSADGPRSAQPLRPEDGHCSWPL
Outline: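 Compound was added to Jurkat-PD-1 cells in DMEM plus 10% fetal calf serum and incubated 2 hours at 37° C. Binding of phycoerythrin-conjugated PD-L1-Ig (20 nM final) to the cells was imaged.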

| Compound | IC50 |
| --- | --- |
| COc1ccc(C[C@@H]2NC(=O)[C@H](Cc3ccccc3)NC(=O)CSC[C@@H](C(=O)N[C@@H](C)C(N)=O)NC(=O)[C@H](CO)NC(=O)[C@H](C(C)C)NC(=O)[C@H](CC(C)C)NC(=O)[C@H](CC(N)=O)NC(=O)CN(C)C(=O)[C@H](C)N(C)C(=O)[C@H](C(C)C)NC(=O)[C@H](Cc3ccc(-c4ccccc4)cc3)NC(=O)[C@H](CC(C)C)NC(=O)[C@H](Cc3c[nH]c4ccccc34)NC(=O)[C@H](CC(=O)O)NC2=O)cc1 [Example 1139] ({CH2CO}-FY(Me)DWL[Bip]V[NMeA][Sar]NLVSCA-NH2; thioether N-14) | 590 nM |
| CCCC[C@@H]1NC(=O)[C@H](C(C)C)NC(=O)[C@H](Cc2ccccc2)N(C)C(=O)[C@H](CC(=O)O)NC(=O)[C@H](CCC(=O)O)NC(=O)[C@H](Cc2ccc(-c3ccccc3)cc2)NC(=O)[C@H](C(C)C)NC(=O)[C@H](Cc2c[nH]c3ccccc23)NC(=O)[C@H](CC(=O)O)NC(=O)[C@H](Cc2ccc(O)cc2)NC(=O)[C@H](Cc2ccccc2)NC(=O)CSC[C@@H](C(=O)NCC(N)=O)NC(=O)[C@H](CCCNC(=N)N)NC(=O)[C@H](C(C)C)NC1=O [Example 1191] ({CH2CO}-FYDWV[Bip]ED[NMeF]V[Nle]VRCG-NH2; thioether N-14) | 690 nM |
| CC(C)C1NC(=O)[C@H](Cc2c[nH]c3ccccc23)NC(=O)[C@H](CC(=O)O)NC(=O)[C@H](Cc2ccncc2)NC(=O)[C@H](Cc2ccc(OCC(=O)O)cc2)NC(=O)CSC[C@@H](C(=O)N[C@@H](C)C(N)=O)NC(=O)[C@H]([C@@H](C)O)NC(=O)[C@H](C(C)C)NC(=O)[C@H](CC2CCCCC2)NC(=O)[C@H](CCN)NC(=O)[C@H](Cc2ccc(O)cc2)N(C)C(=O)[C@H](CCCN)NC(=O)[C@H](CCC(=O)O)NC(=O)[C@H](Cc2ccc(-c3ccccc3)cc2)NC1=O (stereo partly shown) [Example 1452] ({CH2CO}-Y(Carboxymethyl)[4Pal]DW[ξV][Bip]E[Orn][NMeY][Dab][Cha]VTCA-NH2; thioether N-14) | 140 nM |
| CC(C)C[C@@H]1NC(=O)[C@H](Cc2c[nH]c3ccccc23)NC(=O)[C@H](CC(=O)O)NC(=O)[C@H](Cc2ccc(O)cc2)NC(=O)[C@H](Cc2ccccc2)NC(=O)CSC[C@@H](C(=O)N[C@@H](C)C(N)=O)NC(=O)[C@H](CO)NC(=O)[C@H](C(C)C)NC(=O)[C@H](CC(C)C)NC(=O)[C@H](CC(N)=O)NC(=O)[C@H]2CCN2C(=O)[C@H](C)N(C)C(=O)[C@H](C(C)C)NC(=O)[C@H](Cc2ccc(-c3ccccc3)cc2)NC1=O [Example 1021] ({CH2CO}-FYDWL[Bip]V[NMeA][dAze]NLVSCA-NH2; thioether N-14) | 40 nM |
| CC[C@@H]1NC(=O)[C@H](Cc2c[nH]c3ccccc23)NC(=O)[C@H](CC(=O)O)NC(=O)[C@H](Cc2ccc(O)cc2)NC(=O)[C@H](Cc2ccccc2)NC(=O)CSC[C@@H](C(=O)NCC(N)=O)NC(=O)[C@H](CO)NC(=O)[C@H](C(C)C)NC(=O)[C@H](CC(C)C)NC(=O)[C@H](CCCNC(=N)N)NC(=O)[C@H](Cc2ccccc2)N(C)C(=O)[C@H](C)N(C)C(=O)[C@H](CCCNC(=N)N)NC(=O)[C@H](Cc2ccc(-c3ccccc3)cc2)NC1=O [Example 1336] ({CH2CO}-FYDW[Abu][Bip]R[NMeA][NMeF]RLVSCG-NH2; thioether N-14) | 410 nM |
| COc1cccc(C[C@@H]2NC(=O)[C@H](CC(=O)O)NC(=O)[C@H](Cc3ccc(O)cc3)NC(=O)[C@H](Cc3ccccc3)NC(=O)CSC[C@@H](C(=O)N[C@@H](C)C(N)=O)NC(=O)[C@H](CO)NC(=O)[C@H](C(C)C)NC(=O)[C@H](CC(C)C)NC(=O)[C@H](CC(N)=O)NC(=O)CN(C)C(=O)[C@H](C)N(C)C(=O)[C@H](C(C)C)NC(=O)[C@H](Cc3ccc(-c4ccccc4)cc3)NC(=O)[C@H](CC(C)C)NC2=O)c1 [Example 1106] ({CH2CO}-FYD[Phe(3-OMe)]L[Bip]V[NMeA][Sar]NLVSCA-NH2; thioether N-14) | 330 nM |
| CC[C@H](C)[C@@H]1NC(=O)[C@H](Cc2ccc(-c3ccccc3)cc2)NC(=O)[C@H](CC(C)C)NC(=O)[C@H](Cc2c[nH]c3ccccc23)NC(=O)[C@H](CC(=O)O)NC(=O)[C@H](Cc2ccc(O)cc2)NC(=O)[C@H](Cc2ccccc2)NC(=O)CSC[C@@H](C(=O)NCC(N)=O)NC(=O)[C@H](CO)NC(=O)[C@H](C(C)C)NC(=O)[C@H](CC(C)C)NC(=O)[C@H](CC(N)=O)NC(=O)CN(C)C(=O)[C@H](C)N(C)C1=O [Example 1133] ({CH2CO}-FYDWL[Bip]I[NMeA][Sar]NLVSCG-NH2; thioether N-14) | 540 nM |
| CC(C)C[C@@H]1NC(=O)[C@H](Cc2c[nH]c3ccccc23)NC(=O)[C@H](CC(=O)O)NC(=O)[C@H](Cc2ccc(O)cc2)NC(=O)[C@H](Cc2ccccc2)NC(=O)CSC[C@@H](C(=O)N[C@@H](C)C(N)=O)NC(=O)[C@H](CO)NC(=O)[C@H](C(C)C)NC(=O)[C@H](CC(C)C)NC(=O)[C@H](CC(N)=O)NC(=O)[C@H]2CCCN2C(=O)[C@H](C)N(C)C(=O)[C@H](C(C)C)NC(=O)[C@H](Cc2ccc(-c3ccccc3)cc2)NC1=O [Example 1034] ({CH2CO}-FYDWL[Bip]V[NMeA][dP]NLVSCA-NH2; thioether N-14) | 60 nM |
| CC(C)C[C@@H]1NC(=O)[C@H](CC(N)=O)NC(=O)CN(C)C(=O)[C@H](C)N(C)C(=O)[C@H](C(C)C)NC(=O)[C@H](Cc2ccc(-c3ccccc3)cc2)NC(=O)[C@H](Cc2ccc(O)cc2)NC(=O)[C@H](Cc2c[nH]c3ccccc23)NC(=O)[C@H](CC(=O)O)NC(=O)[C@H](Cc2ccc(O)cc2)NC(=O)[C@H](Cc2ccccc2)NC(=O)CSC[C@@H](C(=O)NCC(N)=O)NC(=O)[C@H](CO)NC(=O)[C@H](C(C)C)NC1=O [Example 1224] ({CH2CO}-FYDWY[Bip]V[NMeA][Sar]NLVSCG-NH2; thioether N-14) | 160 nM |
| CC(C)C[C@@H]1NC(=O)[C@H](CCCNC(=N)N)NC(=O)[C@H](Cc2ccccc2)N(C)C(=O)[C@H](C)N(C)C(=O)[C@H](CCC(=O)O)NC(=O)[C@H](Cc2ccc(-c3ccccc3)cc2)NC(=O)[C@H](C(C)C)NC(=O)[C@H](Cc2c[nH]c3ccccc23)NC(=O)[C@H](CC(=O)O)NC(=O)[C@H](Cc2ccc(O)cc2)NC(=O)[C@H](CCC(N)=O)NC(=O)CSC[C@@H](C(=O)NCC(N)=O)NC(=O)[C@H](CO)NC(=O)[C@H](C(C)C)NC1=O [Example 1286] ({CH2CO}-QYDWV[Bip]E[NMeA][NMeF]RLVSCG-NH2; thioether N-14) | 750 nM |
| CC(C)C[C@@H]1NC(=O)CSC[C@@H](C(=O)N[C@@H](C)C(N)=O)NC(=O)[C@H](CO)NC(=O)[C@H](C(C)C)NC(=O)[C@H](CC(C)C)NC(=O)[C@H](CCCNC(=N)N)NC(=O)[C@H](Cc2ccccc2)N(C)C(=O)[C@H](C)N(C)C(=O)[C@H](CCCNC(=N)N)NC(=O)[C@H](Cc2ccc(-c3ccccc3)cc2)NC(=O)[C@H](C(C)C)NC(=O)[C@H](Cc2c[nH]c3ccccc23)NC(=O)[C@H](CC(=O)O)NC(=O)[C@H](Cc2ccc(O)cc2)NC1=O [Example 1308] ({CH2CO}-LYDWV[Bip]R[NMeA][NMeF]RLVSCA-NH2; thioether N-14) | 410 nM |
| CC(C)C[C@@H]1NC(=O)[C@H](Cc2c[nH]c3ccccc23)NC(=O)[C@H](CC(=O)O)NC(=O)[C@H](Cc2ccc(O)cc2)NC(=O)[C@H](Cc2ccccc2)NC(=O)CSC[C@@H](C(=O)N[C@@H](C)C(N)=O)NC(=O)[C@H](CO)NC(=O)[C@H](C(C)C)NC(=O)[C@H](CC(C)C)NC(=O)[C@H](CC(N)=O)NC(=O)CN(C)C(=O)[C@H](C)N(C)C(=O)[C@H](CCCC(=O)O)NC(=O)[C@H](Cc2ccc(-c3ccccc3)cc2)NC1=O [Example 1092] ({CH2CO}-FYDWL[Bip][Aad][NMeA][Sar]NLVSCA-NH2; thioether N-14) | 260 nM |
| CCCC[C@@H]1NC(=O)[C@H](CC(N)=O)NC(=O)[C@H]2CCCN2C(=O)[C@H](C)N(C)C(=O)[C@H](C(C)C)NC(=O)[C@H](Cc2ccc(-c3ccccc3)cc2)NC(=O)[C@H](CC(C)C)NC(=O)[C@H](Cc2c[nH]c3ccccc23)NC(=O)[C@H](CC(=O)O)NC(=O)[C@H](Cc2ccc(O)cc2)NC(=O)[C@H](Cc2ccccc2)NC(=O)CSC[C@@H](C(=O)N[C@@H](C)C(N)=O)NC(=O)[C@H]([C@@H](C)O)NC(=O)[C@H](C(C)C)NC1=O [Example 1097] ({CH2CO}-FYDWL[Bip]V[NMeA][dP]N[Nle]VTCA-NH2; thioether N-14) | 280 nM |
| CC(C)C[C@@H]1NC(=O)[C@H](CCCNC(=N)N)NC(=O)[C@H](Cc2ccccc2)N(C)C(=O)[C@H](C)N(C)C(=O)[C@H](CCCNC(=N)N)NC(=O)[C@H](Cc2ccc(-c3ccccc3)cc2)NC(=O)[C@H](C(C)C)NC(=O)[C@H](Cc2c[nH]c3ccccc23)NC(=O)[C@H](CC(=O)O)NC(=O)[C@H](Cc2ccc(O)cc2)NC(=O)[C@H](Cc2ccccc2)N(C)C(=O)CSC[C@@H](C(=O)NCC(N)=O)NC(=O)[C@H](CO)NC(=O)[C@H](C(C)C)NC1=O [Example 1250] ({CH2CO}-[NMeF]YDWV[Bip]R[NMeA][NMeF]RLVSCG-NH2; thioether N-14) | 320 nM |
| CC(C)C[C@@H]1NC(=O)[C@H](Cc2c[nH]c3ccccc23)NC(=O)[C@H](CC(=O)O)NC(=O)[C@H](Cc2ccc(CN)cc2)NC(=O)[C@H](Cc2ccccc2)NC(=O)CSC[C@@H](C(=O)N[C@@H](C)C(N)=O)NC(=O)[C@H](CO)NC(=O)[C@H](C(C)C)NC(=O)[C@H](CC(C)C)NC(=O)[C@H](CC(N)=O)NC(=O)CN(C)C(=O)[C@H](C)N(C)C(=O)[C@H](C(C)C)NC(=O)[C@H](Cc2ccc(-c3ccccc3)cc2)NC1=O [Example 1101] ({CH2CO}-F[Phe(4-CH2NH2)]DWL[Bip]V[NMeA][Sar]NLVSCA-NH2; thioether N-14) | 300 nM |
| CC(C)C[C@@H]1NC(=O)[C@H](Cc2c[nH]c3ccccc23)NC(=O)[C@H](CC(=O)O)NC(=O)[C@H](Cc2cccnc2)NC(=O)[C@H](Cc2ccccc2)NC(=O)CSC[C@@H](C(=O)N[C@@H](C)C(N)=O)NC(=O)[C@H](CO)NC(=O)[C@H](C(C)C)NC(=O)[C@H](CC(C)C)NC(=O)[C@H](CC(N)=O)NC(=O)CN(C)C(=O)[C@H](C)N(C)C(=O)[C@H](C(C)C)NC(=O)[C@H](Cc2ccc(-c3ccccc3)cc2)NC1=O [Example 1080] ({CH2CO}-F[3Pal]DWL[Bip]V[NMeA][Sar]NLVSCA-NH2; thioether N-14) | 230 nM |
